Data on two compounds can be found in patent US20220073554A1, “LINCOSAMIDE ANTIBIOTICS AND USES THEREOF” (President and Fellows of Harvard College, priority 2017, published 2022).

Structures are written as SMILES. Values after ≈ are worked out from the molar mass of the structure shown.

For one experiment, the system named is C. difficile BAA 1805. Briefly: MIC against C. difficile BAA 1805. Type of experiment: cell-based. Particulars: Clostridioides difficile, BAA1805; C. difficile BAA 1805; read-out: MIC.
Regarding `C=CC1=CCO[C@@H]2[C@H](CN[C@@H]2C(=O)N[C@H]([C@H](C)Cl)[C@H]2OC(SC)[C@H](O)[C@H](O)C2O)C1` (stereo partly drawn) [FSA-507041], the MIC is 0.5 µg/mL (≈ 1.08 µM).

Another experiment concerns E. faecalis MMX 847 Macrolide-Resistant. The experiment can be described thus: MIC against E. faecalis MMX 847 Macrolide-Resistant. The note with it: Enterococcus faecalis. The format is cell-based.
`C=CC1=CCO[C@@H]2[C@H](CN[C@@H]2C(=O)N[C@H]([C@H](C)Cl)[C@H]2OC(SC)[C@H](O)[C@H](O)C2O)C1` (stereo partly drawn) [FSA-507041] yielded an MIC above 32 µg/mL.

The experiment is the same for the next values; noted with them: Enterococcus faecalis; E. faecalis MMX 847 MacRes; read-out: MIC.
Regarding `CSC1O[C@H]([C@H](NC(=O)[C@H]2NC[C@@H]3C[C@@H](CCc4cccc(F)c4)CCO[C@H]32)[C@H](C)Cl)C(O)[C@@H](O)[C@H]1O` (stereo partly drawn) [FSA-510022], the MIC stood at 2 µg/mL (≈ 3.56 µM).

In the next experiment the test system is S. pneumoniae MMX 3031 cMefA. The experiment can be described thus: MIC against S. pneumoniae MMX 3031 cMefA. Type of experiment: cell-based. Particulars: Streptococcus pneumoniae, MMX3031CMEFA.
As to `C=CC1=CCO[C@@H]2[C@H](CN[C@@H]2C(=O)N[C@H]([C@H](C)Cl)[C@H]2OC(SC)[C@H](O)[C@H](O)C2O)C1` (stereo partly drawn) [FSA-507041], the MIC is below 0.03 µg/mL.

`CSC1O[C@H]([C@H](NC(=O)[C@H]2NC[C@@H]3C[C@@H](CCc4cccc(F)c4)CCO[C@H]32)[C@H](C)Cl)C(O)[C@@H](O)[C@H]1O` (stereo partly drawn) [FSA-510022] came in with an MIC of at most 0.06 µg/mL.

For another experiment, the system named is E. coli ATCC 25922. The experiment can be described thus: MIC against E. coli ATCC 25922. Particulars: Escherichia coli, ATCC25922. Type of experiment: cell-based.
For the compound `C=CC1=CCO[C@@H]2[C@H](CN[C@@H]2C(=O)N[C@H]([C@H](C)Cl)[C@H]2OC(SC)[C@H](O)[C@H](O)C2O)C1` (stereo partly drawn) [FSA-507041], the MIC was above 32 µg/mL.

The test system of the next experiment is P. aeruginosa MMX Mex parent strain. The experiment can be described thus: MIC against P. aeruginosa MMX Mex parent strain. Type of experiment: cell-based. Particulars: Pseudomonas aeruginosa.
On to `C=CC1=CCO[C@@H]2[C@H](CN[C@@H]2C(=O)N[C@H]([C@H](C)Cl)[C@H]2OC(SC)[C@H](O)[C@H](O)C2O)C1` (stereo partly drawn) [FSA-507041], for which the MIC was above 32 µg/mL.

The subject of a further experiment is S. aureus MMX 3035 cErmA. Briefly: MIC against S. aureus MMX 3035 cErmA. The format is cell-based. The note with it: Staphylococcus aureus, MMX3035CERMA.
`C=CC1=CCO[C@@H]2[C@H](CN[C@@H]2C(=O)N[C@H]([C@H](C)Cl)[C@H]2OC(SC)[C@H](O)[C@H](O)C2O)C1` (stereo partly drawn) [FSA-507041] came in with an MIC above 32 µg/mL.

Still in this experiment, the particulars now being: Staphylococcus aureus, MMX3035CERMA; S. aureus MMX 3035 cErmA; read-out: MIC.
With `CSC1O[C@H]([C@H](NC(=O)[C@H]2NC[C@@H]3C[C@@H](CCc4cccc(F)c4)CCO[C@H]32)[C@H](C)Cl)C(O)[C@@H](O)[C@H]1O` (stereo partly drawn) [FSA-510022], the MIC was determined as 2 µg/mL (≈ 3.56 µM).

In a further experiment the test system is S. pneumoniae MMX 3028 cErmB. Briefly: MIC against S. pneumoniae MMX 3028 cErmB. Type of experiment: cell-based. The note with it: Streptococcus pneumoniae, MMX3028CERMB; S. pneumoniae MMX 3028 cErmB; read-out: MIC.
As to `CSC1O[C@H]([C@H](NC(=O)[C@H]2NC[C@@H]3C[C@@H](CCc4cccc(F)c4)CCO[C@H]32)[C@H](C)Cl)C(O)[C@@H](O)[C@H]1O` (stereo partly drawn) [FSA-510022], the MIC stood at 4 µg/mL (≈ 7.13 µM).

The next experiment relates to P. aeruginosa MMX 3476 Δmex. Briefly: MIC against P. aeruginosa MMX 3476 Δmex. The format is cell-based. Particulars: Pseudomonas aeruginosa.
In turn, `C=CC1=CCO[C@@H]2[C@H](CN[C@@H]2C(=O)N[C@H]([C@H](C)Cl)[C@H]2OC(SC)[C@H](O)[C@H](O)C2O)C1` (stereo partly drawn) [FSA-507041] returned an MIC above 32 µg/mL.

Another experiment concerns K. pneumoniae ATCC 10031. Briefly: MIC against K. pneumoniae ATCC 10031. The note with it: Klebsiella pneumoniae, ATCC10031; K. pneumoniae ATCC 10031; read-out: MIC. Type of experiment: cell-based.
Consider `CSC1O[C@H]([C@H](NC(=O)[C@H]2NC[C@@H]3C[C@@H](CCc4cccc(F)c4)CCO[C@H]32)[C@H](C)Cl)C(O)[C@@H](O)[C@H]1O` (stereo partly drawn) [FSA-510022], for which the MIC turned out to be 2 µg/mL (≈ 3.56 µM).

The subject of a further experiment is S. pyogenes ATCC 19615. Briefly: MIC against S. pyogenes ATCC 19615. Type of experiment: cell-based. The note with it: Streptococcus pyogenes, ATCC19615; S. pyogenes ATCC 19615; read-out: MIC.
`C=CC1=CCO[C@@H]2[C@H](CN[C@@H]2C(=O)N[C@H]([C@H](C)Cl)[C@H]2OC(SC)[C@H](O)[C@H](O)C2O)C1` (stereo partly drawn) [FSA-507041]: the MIC stood at 0.06 µg/mL (≈ 0.13 µM).

`CSC1O[C@H]([C@H](NC(=O)[C@H]2NC[C@@H]3C[C@@H](CCc4cccc(F)c4)CCO[C@H]32)[C@H](C)Cl)C(O)[C@@H](O)[C@H]1O` (stereo partly drawn) [FSA-510022]: the MIC is at most 0.06 µg/mL.

The subject of another experiment is B. fragilis ATCC 25285. Briefly: MIC against B. fragilis ATCC 25285. The format is cell-based. The note with it: Bacteroides fragilis, ATCC25285; B. fragilis ATCC 25285; read-out: MIC.
As for `C=CC1=CCO[C@@H]2[C@H](CN[C@@H]2C(=O)N[C@H]([C@H](C)Cl)[C@H]2OC(SC)[C@H](O)[C@H](O)C2O)C1` (stereo partly drawn) [FSA-507041], the MIC was determined as 2 µg/mL (≈ 4.32 µM).

For the next experiment, the system named is E. coli MP-74 LptD mutant. Briefly: MIC against E. coli MP-74 LptD mutant. The note with it: Escherichia coli. The format is cell-based.
As to `CSC1O[C@H]([C@H](NC(=O)[C@H]2NC[C@@H]3C[C@@H](CCc4cccc(F)c4)CCO[C@H]32)[C@H](C)Cl)C(O)[C@@H](O)[C@H]1O` (stereo partly drawn) [FSA-510022], the MIC amounted to 4 µg/mL (≈ 7.13 µM).

Another experiment relates to S. aureus BAA 977 iErmA. Briefly: MIC against S. aureus BAA 977 iErmA. The note with it: Staphylococcus aureus, BAA977. The format is cell-based.
For `C=CC1=CCO[C@@H]2[C@H](CN[C@@H]2C(=O)N[C@H]([C@H](C)Cl)[C@H]2OC(SC)[C@H](O)[C@H](O)C2O)C1` (stereo partly drawn) [FSA-507041], the MIC worked out at 0.5 µg/mL (≈ 1.08 µM).

A further experiment concerns E. coli MP-9 ΔTolC. The experiment can be described thus: MIC against E. coli MP-9 ΔTolC. The format is cell-based. The note with it: Escherichia coli.
In turn, `CSC1O[C@H]([C@H](NC(=O)[C@H]2NC[C@@H]3C[C@@H](CCc4cccc(F)c4)CCO[C@H]32)[C@H](C)Cl)C(O)[C@@H](O)[C@H]1O` (stereo partly drawn) [FSA-510022] yielded an MIC of 4 µg/mL (≈ 7.13 µM).

In another experiment the test system is S. aureus ATCC 29213. Briefly: MIC against S. aureus ATCC 29213. Type of experiment: cell-based. Particulars: Staphylococcus aureus, ATCC29213, S. aureus ATCC 29213; read-out: MIC.
Consider `C=CC1=CCO[C@@H]2[C@H](CN[C@@H]2C(=O)N[C@H]([C@H](C)Cl)[C@H]2OC(SC)[C@H](O)[C@H](O)C2O)C1` (stereo partly drawn) [FSA-507041], for which the MIC was 0.5 µg/mL (≈ 1.08 µM).

A further experiment concerns E. faecalis ATCC 29212. Briefly: MIC against E. faecalis ATCC 29212. The format is cell-based. The note with it: Enterococcus faecalis, ATCC29212, read-out: MIC.
For `C=CC1=CCO[C@@H]2[C@H](CN[C@@H]2C(=O)N[C@H]([C@H](C)Cl)[C@H]2OC(SC)[C@H](O)[C@H](O)C2O)C1` (stereo partly drawn) [FSA-507041], the MIC was 2 µg/mL (≈ 4.32 µM).

In a further experiment the test system is P. aeruginosa ATCC 27853. Briefly: MIC against P. aeruginosa ATCC 27853. The format is cell-based. The note with it: Pseudomonas aeruginosa, ATCC27853.
For `C=CC1=CCO[C@@H]2[C@H](CN[C@@H]2C(=O)N[C@H]([C@H](C)Cl)[C@H]2OC(SC)[C@H](O)[C@H](O)C2O)C1` (stereo partly drawn) [FSA-507041], the MIC was above 32 µg/mL.

The subject of another experiment is S. pyogenes MMX 946 Macrolide-Resistant. Briefly: MIC against S. pyogenes MMX 946 Macrolide-Resistant. The format is cell-based. The note with it: Streptococcus pyogenes.
The compound `C=CC1=CCO[C@@H]2[C@H](CN[C@@H]2C(=O)N[C@H]([C@H](C)Cl)[C@H]2OC(SC)[C@H](O)[C@H](O)C2O)C1` (stereo partly drawn) [FSA-507041] showed an MIC above 32 µg/mL.

The experiment is the same for the next values; noted with them: Streptococcus pyogenes; S. pyogenes MMX 946 MacRes; read-out: MIC.
Regarding `CSC1O[C@H]([C@H](NC(=O)[C@H]2NC[C@@H]3C[C@@H](CCc4cccc(F)c4)CCO[C@H]32)[C@H](C)Cl)C(O)[C@@H](O)[C@H]1O` (stereo partly drawn) [FSA-510022], the MIC was 0.5 µg/mL (≈ 0.891 µM).

The subject of another experiment is E. coli MMX TolC parent strain. The experiment can be described thus: MIC against E. coli MMX TolC parent strain. Particulars: Escherichia coli. Type of experiment: cell-based.
For the compound `C=CC1=CCO[C@@H]2[C@H](CN[C@@H]2C(=O)N[C@H]([C@H](C)Cl)[C@H]2OC(SC)[C@H](O)[C@H](O)C2O)C1` (stereo partly drawn) [FSA-507041], the MIC is above 32 µg/mL.

A further experiment deals with H. influenzae ATCC 49247. Briefly: MIC against H. influenzae ATCC 49247. Type of experiment: cell-based. Particulars: Haemophilus influenzae, ATCC49247; H. influenzae ATCC 49247; read-out: MIC.
For `CSC1O[C@H]([C@H](NC(=O)[C@H]2NC[C@@H]3C[C@@H](CCc4cccc(F)c4)CCO[C@H]32)[C@H](C)Cl)C(O)[C@@H](O)[C@H]1O` (stereo partly drawn) [FSA-510022], the MIC came to 1 µg/mL (≈ 1.78 µM).

The next experiment has as its system S. pneumoniae ATCC 49619. The experiment can be described thus: MIC against S. pneumoniae ATCC 49619. Type of experiment: cell-based. The note with it: Streptococcus pneumoniae, ATCC49619; S. pneumoniae ATCC 49619; read-out: MIC.
`C=CC1=CCO[C@@H]2[C@H](CN[C@@H]2C(=O)N[C@H]([C@H](C)Cl)[C@H]2OC(SC)[C@H](O)[C@H](O)C2O)C1` (stereo partly drawn) [FSA-507041]: the MIC was below 0.03 µg/mL.

In the case of `CSC1O[C@H]([C@H](NC(=O)[C@H]2NC[C@@H]3C[C@@H](CCc4cccc(F)c4)CCO[C@H]32)[C@H](C)Cl)C(O)[C@@H](O)[C@H]1O` (stereo partly drawn) [FSA-510022], the MIC is at most 0.06 µg/mL.
